Measured values published in the supplement of paper PMC11061612.

Experiments:
Test in all cases: Bliss excess, mean over the matrix (fraction); higher = more synergy
SK-N-FI (Neuroblastoma) = system: SK-N-FI (Neuroblastoma)
Procedure, shortened: (§1)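 Cell lines grown in DMEM/F12 or RPMI with 10% FBS were plated in 1536-well plates and held 24 hours at 37°C, 5% CO2 before 72 hours of exposure to two-drug dose matrices, with DMSO typically at 0.2%. CellTiter-Glo 2.0 luminescence gave viability, which was converted to inhibition. Vehicle wells were set to 0 and blank wells to 1. Combination Emax is the second-highest inhibition in the matrix, and Bliss excess is the observed combination effect minus the expected EA + EB − EA·EB, where EA and EB are the single-agent effects.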

[1] = system: NCI-H1793 (Lung Adenocarcinoma)
Procedure, shortened: as §1

[2] = system: JiyoyeP-2003 (Burkitt's Lymphoma)
Procedure, shortened: as §1

[3] = system: NCI-H1781 (Lung Adenocarcinoma)
Procedure, shortened: as §1

[4] = system: TE-5 (Esophageal Squamous Cell Carcinoma)
Procedure, shortened: as §1

[5] = system: SNU-C5 (Colorectal Carcinoma)
Procedure, shortened: as §1

[6] = system: CTV-1 (T-Lymphoblastic Leukemia)
Procedure, shortened: as §1

[7] = system: TGBC24TKB (Biliary Tract Carcinoma)
Procedure, shortened: as §1

[8] = system: EM-2 (Chronic Myelogenous Leukemia)
Procedure, shortened: as §1

[9] = system: HPAC (Pancreatic Carcinoma)
Procedure, shortened: as §1

NCI-H2369 (Mesothelioma) = system: NCI-H2369 (Mesothelioma)
Procedure, shortened: as §1

[10] = system: SW1990 (Pancreatic Carcinoma)
Procedure, shortened: as §1

[11] = system: MDA-MB-231 (Breast Carcinoma)
Procedure, shortened: as §1

[12] = system: G-292-Clone-A141B1 (Osteosarcoma)
Procedure, shortened: as §1

[13] = system: DOV13 (Ovarian Carcinoma)
Procedure, shortened: as §1

IGR-1 (Melanoma) = system: IGR-1 (Melanoma)
Procedure, shortened: as §1

CAL-78 (Chondrosarcoma) = system: CAL-78 (Chondrosarcoma)
Procedure, shortened: as §1

[14] = system: MFH-ino (Other Solid Carcinomas)
Procedure, shortened: as §1

[15] = system: NALM-6 (B-Lymphoblastic Leukemia)
Procedure, shortened: as §1

[16] = system: LU-99A (Non-Small Cell Lung Carcinoma)
Procedure, shortened: as §1

| Structure (SMILES) | Bliss excess (SK-N-FI (Neuroblastoma)) | Bliss excess [1] | Bliss excess [2] | Bliss excess [3] | Bliss excess [4] | Bliss excess [5] | Bliss excess [6] | Bliss excess [7] | Bliss excess [8] | Bliss excess [9] | Bliss excess (NCI-H2369 (Mesothelioma)) | Bliss excess [10] | Bliss excess [11] | Bliss excess [12] | Bliss excess [13] | Bliss excess (IGR-1 (Melanoma)) | Bliss excess (CAL-78 (Chondrosarcoma)) | Bliss excess [14] | Bliss excess [15] | Bliss excess [16] |
| --- | --- | --- | --- | --- | --- | --- | --- | --- | --- | --- | --- | --- | --- | --- | --- | --- | --- | --- | --- | --- |
| CN(CCO)CC[C@H](CSc1ccccc1)Nc1ccc(S(=O)(=O)NC(=O)c2ccc(N3CCC([C@@H](O)c4ccccc4-c4ccc(Cl)cc4)CC3)cc2)cc1S(=O)(=O)C(F)(F)F [AZD4320] + Cn1cnc2c(F)c(Nc3ccc(Br)cc3Cl)c(C(=O)NOCCO)cc21 [Selumetinib] (first compound max 1 µM, 7x7, partner max 3 µM) | 0.0296 | 0.0496 | 0.0288 | 0.0131 | 0.0377 | 0.0837 | 0.0708 | 0.0369 | 0.007 | 0.0371 | 0.0216 | 0.0357 | -0.0013 | -0.0021 | -0.114 | 0.143 | -0.0388 | -0.03 | 0.0153 | 0.0878 |
| COc1nnc2ccc(N3CCC(c4ccc(OCCN5CCN(C)C(=O)[C@H]5C)cc4)CC3)nn12 [AZD5153] + Cn1cnc2c(F)c(Nc3ccc(Br)cc3Cl)c(C(=O)NOCCO)cc21 [Selumetinib] (first compound max 1 µM, 7x7, partner max 10 µM) | -0.0386 | 0.0212 | -0.0117 | -0.0085 | 0.0184 | -0.0116 | 0.0009 | 0.158 | 0.0468 | 0.0161 | -0.048 | -0.0209 | 0.0516 | -0.0388 | -0.0263 | 0.0544 | -0.0315 | -0.0031 | 0.0085 | -0.0118 |
| NC1(C(=O)N[C@@H](CCO)c2ccc(Cl)cc2)CCN(c2ncnc3[nH]ccc23)CC1 [Capivasertib] + CCN(CCO)CCCOc1ccc2c(Nc3cc(CC(=O)Nc4cccc(F)c4)[nH]n3)ncnc2c1 [AZD2811] (first compound max 10 µM, 7x7, partner max 1 µM) | -0.0265 | -0.0515 | -0.0303 | -0.0433 | -0.0283 | -0.0571 | 0.0423 | 0.0111 | -0.0463 | -0.049 | -0.0446 | -0.033 | -0.0154 | 0.0116 | -0.0392 | 0.0077 | 0.024 | -0.0542 | -0.0987 | 0.0154 |
| Cc1c2c(nn1C)CSCc1cc(n(C)n1)CSc1cc(c3ccccc3c1)OCCCc1c(C(=O)O)n(C)c3c-2c(Cl)ccc13 [AZD5991] + Cc1cc2ncnn2cc1Nc1ncc2c(n1)n(C1CCOCC1)c(=O)n2C [AZD7648] (first compound max 1 µM, 7x7, partner max 10 µM) | -0.0289 | -0.0112 | 0.0725 | -0.105 | -0.0257 | -0.0085 | -0.0169 | -0.0102 | 0.0206 | -0.0679 | 0.0018 | -0.0398 | -0.0397 | -0.0274 | -0.0025 | -0.0642 | -0.0448 | -0.018 | -0.0303 | -0.0397 |
| C[C@@H]1COCCN1c1cc(C2([S@](C)(=N)=O)CC2)nc(-c2ccnc3[nH]ccc23)n1 [AZD6738] + O=C(c1cc(Cc2n[nH]c(=O)c3ccccc23)ccc1F)N1CCN(C(=O)C2CC2)CC1 [Olaparib] (first compound max 10 µM, 7x7, partner max 10 µM) | -0.0581 | -0.0153 | 0.0005 | -0.0218 | -0.021 | -0.0258 | 0.043 | -0.0113 | 0.0026 | 0.0125 | -0.0344 | -0.0071 | -0.0335 | 0.0195 | 0.0127 | 0.0059 | 0.0285 | 0.0189 | 0.0015 | -0.0289 |
| CC1(C)CCC(CN2CCN(c3ccc(C(=O)NS(=O)(=O)c4ccc(NCC5CCOCC5)c([N+](=O)[O-])c4)c(Oc4cnc5[nH]ccc5c4)c3)CC2)=C(c2ccc(Cl)cc2)C1 [Venetoclax] + C[C@@H](Nc1cc(F)cc(F)c1)c1cc(C(=O)N(C)C)cc2c(=O)cc(N3CCOCC3)oc12 [AZD8186] (first compound max 1 µM, 7x7, partner max 3 µM) | -0.0178 | 0.0197 | 0.0246 | -0.0341 | -0.0327 | -0.0308 | 0.0057 | -0.0202 | 0.0104 | -0.0029 | -0.0299 | -0.0255 | -0.0066 | -0.0195 | -0.0073 | -0.0471 | -0.0152 | -0.053 | 0.0348 | -0.0412 |
| CC1(C)CCC(CN2CCN(c3ccc(C(=O)NS(=O)(=O)c4ccc(NCC5CCOCC5)c([N+](=O)[O-])c4)c(Oc4cnc5[nH]ccc5c4)c3)CC2)=C(c2ccc(Cl)cc2)C1 [Venetoclax] + CN(C)CCCOc1ccc(-c2ccc3ncc4c(c3c2)n(C2CCOCC2)c(=O)n4C)cn1 [AZD0156] (first compound max 1 µM, 7x7, partner max 1 µM) | 0 | -0.0158 | -0.0128 | 0.0048 | -0.0248 | -0.0123 | -0.0103 | 0.0307 | -0.0045 | -0.0146 | -0.0298 | -0.0056 | 0.0067 | -0.0367 | -0.0231 | 0.0116 | -0.0043 | -0.0403 | 0.0426 | -0.0375 |
| NC1(C(=O)N[C@@H](CCO)c2ccc(Cl)cc2)CCN(c2ncnc3[nH]ccc23)CC1 [Capivasertib] + CC(=O)c1c(C)c2cnc(Nc3ccc(N4CCNCC4)cn3)nc2n(C2CCCC2)c1=O [Palbociclib] (first compound max 10 µM, 7x7, partner max 10 µM) | -0.0581 | -0.0287 | 0.0203 | -0.0326 | 0.0142 | -0.0112 | 0.0198 | -0.0216 | -0.0552 | 0.0004 | 0.0133 | -0.0404 | -0.0024 | 0.0166 | 0.0055 | -0.0028 | -0.0424 | -0.0353 | -0.0107 | -0.0189 |
| CC1(C)CCC(CN2CCN(c3ccc(C(=O)NS(=O)(=O)c4ccc(NCC5CCOCC5)c([N+](=O)[O-])c4)c(Oc4cnc5[nH]ccc5c4)c3)CC2)=C(c2ccc(Cl)cc2)C1 [Venetoclax] + Cn1cnc2c(F)c(Nc3ccc(Br)cc3Cl)c(C(=O)NOCCO)cc21 [Selumetinib] (first compound max 1 µM, 7x7, partner max 3 µM) | 0.0374 | -0.0096 | 0.0014 | -0.0437 | -0.0575 | -0.0248 | -0.0173 | -0.0103 | -0.055 | -0.0515 | -0.0308 | -0.0656 | -0.0277 | -0.0441 | -0.0151 | -0.0405 | -0.0619 | -0.0288 | 0.168 | -0.0484 |
| Cc1c2c(nn1C)CSCc1cc(n(C)n1)CSc1cc(c3ccccc3c1)OCCCc1c(C(=O)O)n(C)c3c-2c(Cl)ccc13 [AZD5991] + C[C@@H]1COCCN1C2=NC(=NC(=C2)C3(CC3)[S@](=N)(=O)C)C4=C5C=CNC5=NC=C4 [AZD6738] (first compound max 1 µM, 7x7, partner max 10 µM) | -0.0554 | 0.0097 | 0.0159 | 0.0103 | -0.0294 | -0.011 | 0.0021 | -0.006 | 0.0299 | 0.0409 | 0.0442 | -0.0062 | 0.0132 | -0.001 | 0.0005 | 0.105 | 0.0335 | 0.0319 | -0.0114 | -0.0152 |
| CC1(C)CCC(CN2CCN(c3ccc(C(=O)NS(=O)(=O)c4ccc(NCC5CCOCC5)c([N+](=O)[O-])c4)c(Oc4cnc5[nH]ccc5c4)c3)CC2)=C(c2ccc(Cl)cc2)C1 [Venetoclax] + C=CCn1c(=O)c2cnc(Nc3ccc(N4CCN(C)CC4)cc3)nc2n1-c1cccc(C(C)(C)O)n1 [AZD1775] (first compound max 1 µM, partner max 1 µM) | -0.0076 | -0.0007 | -0.0263 | -0.0767 | -0.0412 | -0.0339 | -0.0327 | -0.0108 | -0.0094 | -0.0565 | -0.0134 | 0.0206 | -0.0666 | -0.0023 | 0.131 | 0.0147 | -0.0817 | -0.0222 | 0.119 | -0.0533 |
